Measured values from article PMC11930985 (Nature Communications, 2025).
Several values for one entry are separate records, joined by “and”; a condition that tells them apart may be missing. Equal entries are not always repeated.

Target: T1, pAXL (Homo sapiens, UniProt P30530)
T1 construct: AML blasts were identified within the peripheral blood mononuclear cell population by CyTOF; endogenous in cells
T1 sequence (P30530 26-894): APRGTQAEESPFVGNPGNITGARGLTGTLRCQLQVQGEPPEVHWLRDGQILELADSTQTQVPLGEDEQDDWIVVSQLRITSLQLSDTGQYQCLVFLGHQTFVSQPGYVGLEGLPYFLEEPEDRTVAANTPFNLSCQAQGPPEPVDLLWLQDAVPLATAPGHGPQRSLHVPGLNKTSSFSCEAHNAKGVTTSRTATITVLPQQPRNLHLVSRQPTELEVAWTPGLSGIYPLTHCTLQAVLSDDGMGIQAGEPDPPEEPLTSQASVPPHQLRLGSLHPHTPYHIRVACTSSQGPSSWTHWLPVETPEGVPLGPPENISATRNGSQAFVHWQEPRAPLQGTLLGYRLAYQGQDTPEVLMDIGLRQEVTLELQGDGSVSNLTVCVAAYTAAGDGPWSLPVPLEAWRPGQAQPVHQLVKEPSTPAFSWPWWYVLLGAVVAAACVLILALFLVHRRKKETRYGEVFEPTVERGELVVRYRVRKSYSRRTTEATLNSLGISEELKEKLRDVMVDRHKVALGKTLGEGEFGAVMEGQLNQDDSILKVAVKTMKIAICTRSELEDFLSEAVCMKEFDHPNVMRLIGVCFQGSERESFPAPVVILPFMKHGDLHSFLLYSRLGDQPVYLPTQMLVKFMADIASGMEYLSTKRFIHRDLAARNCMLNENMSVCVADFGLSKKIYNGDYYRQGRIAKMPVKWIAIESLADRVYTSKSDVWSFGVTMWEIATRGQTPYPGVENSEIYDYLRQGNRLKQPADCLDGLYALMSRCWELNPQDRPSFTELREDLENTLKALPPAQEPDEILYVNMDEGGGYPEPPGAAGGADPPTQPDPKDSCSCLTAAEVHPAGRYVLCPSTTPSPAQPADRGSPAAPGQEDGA
Experiment: CyTOF maximal pAXL inhibition in AML blasts vs bemcentinib concentration
Assay type: in vivo
Excerpt: Pharmacodynamic endpoints included the measurement of inhibition of pAXL, pERK, pAKT, pS6 and pSTAT1/3/5 in blast cells (defined as cells with abnormal surface marker expression as compared to healthy donor peripheral blood mononuclear cells and undefined/immature myeloid cells (defined as cells carrying myeloid markers but lacking distinguishing terminal differentiation markers). Mass cytometry time of flight (CyTOF) was used for the determination of the pharmacodynamic markers using a previously validated and tested panel of mass-tagged antibodies[39],[40]. The antibodies in the panel are listed in Supplementary Table 5. Briefly, fixed leukocytes from peripheral blood were barcoded using a 20-plex metal barcoding kit (Standard Biotools, Cell-ID 201060) according to manufacturer’s protocol, allowing all the samples from a single individual to be stained and analysed in parallel. All analysis runs included barcoded peripheral blood mononuclear cells (PBMCs) from at least one healthy donor and an identical barcoded reference sample (mix of PBMCs from six healthy donors). Barcoded cells (approx. 6 × 10^6) were treated with FC receptor block (Octagam, 1:1000 (Octapharma) in MaxPar cell staining buffer (CSB, Standard Biotools 201068), 15 min, room temperature) and treated with heparin (100 IU/mL in CSB, 20 min) to reduce non-specific staining artefacts. The sample was then stained with an optimised mixture of mass-tagged surface antibodies in a total staining volume of 600 μL (30 min, room temperature). Subsequently, the sample was permeabilized with cold (-20 °C) 100 % methanol (15 min, on ice), re-treated with heparin, and stained with a panel of intracellular mass-tagged antibodies (as described above). DNA was labelled with iridium-191/193 by incubation in 0.1 nM Ir-nucleic acid intercalator (Standard Biotools 201192) diluted in MaxPar PBS (Standard biotools 201058) containing 4% PFA overnight at 4 °C. […]
For each population, marker, and sample, the 95th percentile of the non-transformed expression values was calculated. […]

Nc1nc(Nc2ccc3c(c2)CC[C@@H](N2CCCC2)CC3)nn1-c1cc2c(nn1)-c1ccccc1CCC2 [Bemcentinib]
Maximum inhibition (percent) pAXL(Y779) (Figure 4, individual patients (Pt 1-13)): 14.7% and 1.3% and 25.7% and 0.4% and 26.3% and 2.9% and 13.4% and 0% and 16.1% and 15.5% and 11.4% and 7% | Plasma concentrations at which inhibition of pAXL was seen (peripheral blood, DE cohort): 45–347 ng/mL | Time to intracellular phospho-signaling changes vs pre-treatment (peripheral blood, DE cohort): ≤ 4 h
